Assay results as given in US12612386B2, “Heteroaryl-triazole compounds as pesticides” (Bayer Aktiengesellschaft, priority 2020, dated 2026).

Experiments:
Format in all cases: in vivo
[1] = test system: green peach aphid (Myzus persicae); experiment: Myzus persicae spray test (MYZUPE); conditions: 120 h; for Emax at 20 g/ha / Emax at 100 g/ha: MYZUPE, 5 dat (Table 4), read-out: % Efficacy; for Emax at 20 g/ha: 20 g ai/ha; for Emax at 100 g/ha: 100 g ai/ha; for mortality at 100 g/ha: after 5 days
Experimental: Myzus persicae—Spray Test
• Solvent: 78.0 parts by weight acetone • 1.5 parts by weight dimethylformamide • Emulsifier: alkylarylpoly glycol ether
(§1) To produce a suitable preparation of active compound, 1 part by weight of active compound is mixed with the stated amount of solvents and is diluted with water, containing an emulsifier concentration of 1000 ppm, to the desired concentration. Further test concentrations are prepared by dilution with emulsifier containing water.
Chinese cabbage (Brassica pekinensis) leaf disks infected with all instars of the green peach aphid (Myzus persicae), are sprayed with a preparation of the active ingredient of the desired concentration.
After 5 days mortality in % is determined. 100% means all aphids have been killed and 0% means none of the aphids have been killed.
Myzus persicae—Spray Test (MYZUPE)
(§2) • Solvent: 78.0 parts by weight acetone • 1.5 parts by weight dimethylformamide • Emulsifier: alkylarylpolyglycol ether
After the specified period of time, mortality in % is determined. 100% means all aphids have been killed and 0% means none of the aphids have been killed.

[2] = test system: fall armyworm larvae (Spodoptera frugiperda); experiment: whole plant or invertebrate; conditions: 168 h
Experimental: Spodoptera frugiperda—Spray Test
as §2, §1
Maize (Zea mays) leaf sections are sprayed with a preparation of the active ingredient of the desired concentration. Once dry, the leaf sections are infested with fall armyworm larvae (Spodoptera frugiperda).
After 7 days mortality in % is determined. 100% means all caterpillars have been killed and 0% means none of the caterpillars have been killed.
Spodoptera frugiperda—Spray Test (SPODFR)
After the specified period of time, mortality in % is determined. 100% means all caterpillars have been killed and 0% means none of the caterpillars have been killed.

[3] = test system: larvae of the banded cucumber beetle (Diabrotica balteata); experiment: Diabrotica balteata spray test; conditions: 168 h, 100 g/ha (=32 μg/well), after 7 days, read-out: efficacy (seedling growth)
Experimental: Diabrotica balteata—Spray Test
(§3) • Solvent: 78.0 parts by weight of acetone • 1.5 parts by weight of dimethylformamide • Emulsifier: alkylarylpolyglycol ether
(§4) To produce a suitable preparation of active compound, 1 part by weight of active compound is mixed with the stated amount of solvent, and the concentrate is diluted with water, containing an emulsifier concentration of 1000 ppm, to the desired concentration. Further test concentrations are prepared by dilution with emulsifier containing water.
Soaked wheat seeds (Triticum aestivum) are placed in a multiple well plate filled with agar and some water and are incubated for 1 day to germinate (5 seeds per well). The germinated wheat seeds are sprayed with a test solution containing the desired concentration of the active ingredient. Afterwards each unit is infected with 10-20 larvae of the banded cucumber beetle (Diabrotica balteata).
After 7 days efficacy in % is determined. 100% means all the seedlings have grown up like in the untreated, uninfected control; 0% means none of the seedlings have grown.

[4] = test system: larvae of the southern green stink bug (Nezara viridula); experiment: whole plant or invertebrate; conditions: 96 h
Experimental: Nezara viridula—Spray Test
as §3, §4
Barley plants (Hordeum vulgare) are sprayed with a test solution containing the desired concentration of the active ingredient and are infested with larvae of the southern green stink bug (Nezara viridula).
After 4 days mortality in % is determined. 100% means all the stink bugs have been killed; 0% means none of the stink bugs have been killed.

Structure (SMILES) | mortality at 100 g/ha [1] | mortality at 100 g/ha [2] | pest or weed control at 32 µg/disc, 100 g/ha [3] | mortality at 500 g/ha [4] | also measured
C[C@H](NC(=O)c1cc(Cl)cc(S(=O)(=O)C(F)(F)F)c1)c1ncnn1-c1ccccn1 [I-068 Known from WO 2019197468, reference compound] | – | – | – | – | Emax at 20 g/ha [1]: 0%; Emax at 100 g/ha [1]: 0%
CC(C)N(C)C(=O)c1cc(-n2ncnc2[C@H](C)NC(=O)c2cc(OC(F)F)cc(OC(F)F)c2)ncn1 [I-97] | 90% | 100% | – | – | –
Cc1nc([C@H](C)NC(=O)c2cc(Br)cc(Br)c2)n(-c2cc(C(N)=O)ncn2)n1 [I-71] | 90% | 100% | 100% | 90% | –
C[C@H](NC(=O)c1ccnc(OC(F)(F)F)c1)c1ncnn1-c1cc(C(N)=O)ncn1 [I-132] | – | 100% | 100% | 100% | –
C[C@H](NC(=O)c1cc(OC(F)(F)F)cc(S(=O)(=O)C(F)F)c1)c1ncnn1-c1cc(C(N)=O)ncn1 [I-45] | 90% | 100% | 100% | 100% | –
C[C@H](NC(=O)c1cc(OC(F)(F)F)cc(C2(C#N)CC2)c1)c1nc(C2CC2)nn1-c1cc(C(=O)N(C)C)ncn1 [I-167] | 100% | 100% | 80% | – | –
C[C@H](NC(=O)c1cc(Cl)cc(OC(F)(F)F)c1)c1nc(C2CC2)nn1-c1cc(C(=O)N(C)C)ncn1 [I-166] | 100% | 100% | 100% | – | –
C[C@H](NC(=O)c1cc(Br)cc(OC(F)(F)C(F)F)c1)c1ncnn1-c1cc(C(N)=O)ncn1 [I-112] | 100% | 100% | 100% | – | –
C[C@H](NC(=O)c1cc(OC(F)(F)F)cc(S(=O)(=O)C(F)F)c1)c1nc(C2CC2)nn1-c1cc(C(=O)N(C)C)ncn1 [I-156] | 90% | 100% | 100% | – | –
CNC(=O)c1cc(-n2ncnc2[C@H](C)NC(=O)c2cccc(OC(F)(F)F)c2)ncn1 [I-110] | 90% | 100% | 100% | 100% | –
C[C@H](NC(=O)c1cc(OC(F)(F)F)cc(C2(C#N)CC2)c1)c1ncnn1-c1cc(C(=O)NC2CC2)ncn1 [I-169] | 90% | 100% | 100% | – | –
C[C@H](NC(=O)c1cc(Br)cc(C#N)c1)c1ncnn1-c1cc(C(N)=O)ncn1 [I-124] | 90% | 100% | 100% | 100% | mortality at 100 g/ha [4]: 100%
C[C@H](NC(=O)c1cc(Br)nc(Br)c1)c1ncnn1-c1cc(C(N)=O)ncn1 [I-148] | – | 100% | 100% | 100% | –
Cc1nc([C@H](C)NC(=O)c2cc(OC(F)(F)F)cc(S(C)(=O)=O)c2)n(-c2cc(C#N)ncn2)n1 [I-30] | – | 100% | 100% | 100% | –
C[C@H](NC(=O)c1cc(Br)cc(S(=O)(=O)C(F)(F)F)c1)c1ncnn1-c1cc(C(N)=O)ncn1 [I-138] | – | 100% | 80% | 100% | –
Cc1nc([C@H](C)NC(=O)c2cc(OC(F)(F)F)cc(OC(F)(F)F)c2)n(-c2cc(C(N)=O)ncn2)n1 [I-117] | – | 100% | 100% | 100% | –
CC(C)N(C)C(=O)c1cc(-n2ncnc2[C@H](C)NC(=O)c2cc(Br)cc(OC(F)F)c2)ncn1 [I-103] | 90% | 100% | 100% | – | –
C[C@H](NC(=O)c1cc(Cl)cc(S(=O)(=O)C(F)F)c1)c1ncnn1-c1cc(C#N)ncn1 [I-119] | – | 100% | 100% | 100% | –
CCNC(=O)c1cc(-n2ncnc2[C@H](C)NC(=O)c2cc(OC(F)(F)F)cc(C3(C#N)CC3)c2)ncn1 [I-168] | 100% | 100% | 100% | – | –
CC(C)NC(=O)c1cc(-n2ncnc2[C@H](C)NC(=O)c2cc(OC(F)(F)F)cc(C3(C#N)CC3)c2)ncn1 [I-163] | 100% | 100% | 100% | – | –
C[C@H](NC(=O)c1cc(OC(F)F)cc(OC(F)F)c1)c1nc(C2CC2)nn1-c1cc(C(N)=O)ncn1 [I-152] | 100% | 100% | 100% | – | –
C[C@H](NC(=O)c1cc(Cl)cc(S(=O)(=O)C(F)F)c1)c1nc(C2CC2)nn1-c1cc(C(=O)N(C)C)ncn1 [I-161] | 90% | 100% | 100% | – | –
C[C@H](NC(=O)c1cc(OC(F)(F)F)cc(C2CC2)c1)c1nc(C2CC2)nn1-c1cc(C(=O)N(C)C)ncn1 [I-159] | 90% | 100% | 100% | – | –
C[C@H](NC(=O)c1cc(Cl)cc(S(=O)(=O)C(F)(F)F)c1)c1ncnn1-c1cc(C#N)ccn1 [I-075 Known from WO 2019197468, reference compound] | – | – | – | – | Emax at 20 g/ha [1]: 70%; Emax at 100 g/ha [1]: 90%; Emax at 20 g/ha ([2]; SPODFR, 20 g ai/ha, 7 dat (Table 4), read-out: % Efficacy): 33%; Emax at 100 g/ha ([2]; SPODFR, 100 g ai/ha, 7 dat (Table 4), read-out: % Efficacy): 100%
C[C@H](NC(=O)c1cc(Cl)cc(S(C)(=O)=O)c1)c1nc(C2CC2)nn1-c1cc(C(=O)N(C)C)ncn1 [I-160] | 100% | 83% | 100% | – | –
C[C@H](NC(=O)c1cc(Br)cc(S(C)(=O)=O)c1)c1nc(C2CC2)nn1-c1cc(C(N)=O)ncn1 [I-143] | 100% | 100% | – | 100% | –
C[C@H](NC(=O)c1cc(C(F)(F)F)cc(S(C)(=O)=O)c1)c1nc(C2CC2)nn1-c1cc(C(=O)N(C)C)ncn1 [I-164] | 100% | – | 80% | – | –
C[C@H](NC(=O)c1cc(Cl)cc(S(C)(=O)=O)c1)c1nc(C2CC2)nn1-c1cc(C(N)=O)ncn1 [I-150] | 90% | 100% | – | 100% | –
C[C@H](NC(=O)c1cc(Cl)cc(OC(F)(F)C(F)F)c1)c1ncnn1-c1cc(C(N)=O)ncn1 [I-113, 6-(5-{(1S)-1-[3-chloro-5-(1,1,2,2-tetrafluoroethoxy)benzamido]ethyl}-1H-1,2,4-triazol-1-yl)pyrimidine-4-carboxamide] | 90% | 100% | – | – | –
